Converted amounts (≈) assume the structure as drawn.
Key:
Homo sapiens [1] = organism: Homo sapiens; assay: Selectivity ratio of IC50 for human recombinant HDAC4 to human recombinant HDAC6
Homo sapiens [2] = organism: Homo sapiens; assay: Selectivity ratio of IC50 for human recombinant HDAC1 to human recombinant HDAC6
Histone deacetylase 4 = Histone deacetylase 4 (Homo sapiens, UniProt P56524); assay: Inhibition of human recombinant HDAC4 using p53 residues 379-382 (RHKKAc) as substrate
Histone deacetylase 1 = Histone deacetylase 1 (Homo sapiens, UniProt Q13547); assay: Inhibition of human recombinant HDAC1 using p53 residues 379-382 (RHKKAc) as substrate
Chain of Histone deacetylase 1 (Q13547 whole entry, the tested form may be a part): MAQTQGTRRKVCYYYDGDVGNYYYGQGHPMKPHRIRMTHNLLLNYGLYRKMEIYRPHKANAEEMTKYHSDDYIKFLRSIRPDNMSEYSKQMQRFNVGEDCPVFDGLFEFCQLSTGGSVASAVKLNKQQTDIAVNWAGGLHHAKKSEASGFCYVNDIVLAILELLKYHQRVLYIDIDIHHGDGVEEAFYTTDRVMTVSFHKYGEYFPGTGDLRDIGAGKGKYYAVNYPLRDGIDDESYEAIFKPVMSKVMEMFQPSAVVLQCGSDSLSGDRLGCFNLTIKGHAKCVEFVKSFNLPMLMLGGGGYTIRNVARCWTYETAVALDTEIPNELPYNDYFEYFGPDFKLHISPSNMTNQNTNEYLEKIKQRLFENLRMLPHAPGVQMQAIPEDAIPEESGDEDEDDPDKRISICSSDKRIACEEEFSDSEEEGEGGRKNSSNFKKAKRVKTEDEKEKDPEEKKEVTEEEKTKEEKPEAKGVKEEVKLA

HepG2 = assay: cells; assay type: functional, cell-based; details: Homo sapiens, HepG2, 48 h
A549 = assay: cells; assay type: functional, cell-based; details: Homo sapiens, A549, 48 h
HCT-116 = assay: cells; assay type: functional, cell-based; details: Homo sapiens, HCT-116, 48 h
PC-3 = assay: cells; assay type: functional, cell-based; details: Homo sapiens, PC-3, 48 h
Histone deacetylase = assay type: protein assay, Homo sapiens; details: hela
[3] = target: T1, Protein deacetylase HDAC6 (Homo sapiens, UniProt Q9UBN7)
T1 sequence (Q9UBN7 whole entry): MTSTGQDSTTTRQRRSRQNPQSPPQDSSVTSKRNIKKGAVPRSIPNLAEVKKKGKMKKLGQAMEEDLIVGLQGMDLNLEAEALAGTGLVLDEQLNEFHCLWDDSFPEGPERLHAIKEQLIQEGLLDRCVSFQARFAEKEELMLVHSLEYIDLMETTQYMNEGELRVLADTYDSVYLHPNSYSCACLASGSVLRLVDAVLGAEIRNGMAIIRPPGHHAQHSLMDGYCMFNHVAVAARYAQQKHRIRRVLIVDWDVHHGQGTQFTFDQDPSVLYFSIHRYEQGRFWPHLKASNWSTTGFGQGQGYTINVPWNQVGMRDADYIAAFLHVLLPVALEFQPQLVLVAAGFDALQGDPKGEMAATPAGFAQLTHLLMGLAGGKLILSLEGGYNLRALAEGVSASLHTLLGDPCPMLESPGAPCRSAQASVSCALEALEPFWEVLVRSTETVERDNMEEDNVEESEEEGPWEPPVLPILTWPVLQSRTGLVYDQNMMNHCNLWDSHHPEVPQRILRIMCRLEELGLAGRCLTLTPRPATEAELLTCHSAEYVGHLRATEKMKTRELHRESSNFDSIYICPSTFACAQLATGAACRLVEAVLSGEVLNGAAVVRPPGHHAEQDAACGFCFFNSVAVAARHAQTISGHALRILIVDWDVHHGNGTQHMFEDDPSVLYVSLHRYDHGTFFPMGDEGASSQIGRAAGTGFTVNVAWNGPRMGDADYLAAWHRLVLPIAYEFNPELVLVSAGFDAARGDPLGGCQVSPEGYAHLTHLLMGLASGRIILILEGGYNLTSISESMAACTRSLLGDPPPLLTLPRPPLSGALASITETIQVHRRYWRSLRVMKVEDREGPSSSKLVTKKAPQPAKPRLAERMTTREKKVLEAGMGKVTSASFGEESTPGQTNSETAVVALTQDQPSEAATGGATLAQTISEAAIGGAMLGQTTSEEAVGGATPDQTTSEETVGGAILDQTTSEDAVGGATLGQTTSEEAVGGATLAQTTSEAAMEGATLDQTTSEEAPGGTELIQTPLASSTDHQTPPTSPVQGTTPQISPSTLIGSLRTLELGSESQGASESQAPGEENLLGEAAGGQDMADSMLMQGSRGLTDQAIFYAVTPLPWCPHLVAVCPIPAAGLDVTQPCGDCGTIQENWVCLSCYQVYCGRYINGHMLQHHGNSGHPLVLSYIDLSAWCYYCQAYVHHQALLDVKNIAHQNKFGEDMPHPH

[4] = Intrinsic aqueous solubility of the compound at pH 7.4 by Avdeef-Tsinman potentiometric titration method; assay type: physicochemical; details: read-out: Intrinsic_solubility
[5] = Partition coefficient, log D of the compound at pH 7.4 by Avdeef-Tsinman potentiometric titration method; assay type: physicochemical; details: octanol/water

Chain of Histone deacetylase 4 (P56524 whole entry, the tested form may be a part): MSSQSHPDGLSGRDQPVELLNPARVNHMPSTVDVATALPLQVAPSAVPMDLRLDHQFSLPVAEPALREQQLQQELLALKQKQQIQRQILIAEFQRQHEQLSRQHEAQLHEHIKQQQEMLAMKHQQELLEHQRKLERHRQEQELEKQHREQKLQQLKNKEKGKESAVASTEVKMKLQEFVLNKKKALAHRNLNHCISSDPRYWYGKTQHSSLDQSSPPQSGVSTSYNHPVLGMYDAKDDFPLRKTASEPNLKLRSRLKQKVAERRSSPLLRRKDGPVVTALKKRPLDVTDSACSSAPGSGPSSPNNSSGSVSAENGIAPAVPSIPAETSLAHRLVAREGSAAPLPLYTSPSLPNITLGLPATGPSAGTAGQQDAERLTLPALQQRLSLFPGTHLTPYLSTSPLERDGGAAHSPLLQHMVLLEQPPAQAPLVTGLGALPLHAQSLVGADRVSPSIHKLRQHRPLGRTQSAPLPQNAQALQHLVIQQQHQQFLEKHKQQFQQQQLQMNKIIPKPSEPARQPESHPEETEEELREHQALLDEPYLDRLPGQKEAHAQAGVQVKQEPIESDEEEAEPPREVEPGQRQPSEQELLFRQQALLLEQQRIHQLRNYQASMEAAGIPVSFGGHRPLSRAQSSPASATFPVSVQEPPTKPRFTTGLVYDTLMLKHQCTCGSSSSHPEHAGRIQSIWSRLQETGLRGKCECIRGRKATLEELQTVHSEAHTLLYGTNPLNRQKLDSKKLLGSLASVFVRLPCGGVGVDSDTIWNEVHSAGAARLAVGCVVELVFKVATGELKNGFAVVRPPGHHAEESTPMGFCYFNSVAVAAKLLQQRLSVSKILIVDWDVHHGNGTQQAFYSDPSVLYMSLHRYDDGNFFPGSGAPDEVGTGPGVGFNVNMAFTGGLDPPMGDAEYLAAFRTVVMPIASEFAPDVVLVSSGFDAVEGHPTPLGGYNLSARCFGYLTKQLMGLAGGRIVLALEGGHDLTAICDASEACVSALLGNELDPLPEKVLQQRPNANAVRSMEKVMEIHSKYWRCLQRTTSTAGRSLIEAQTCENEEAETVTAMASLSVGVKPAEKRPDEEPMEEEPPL

| Structure (SMILES) | Ratio IC50 (Homo sapiens [1]) | Ratio IC50 (Homo sapiens [2]) | IC50 (Histone deacetylase 4) [µM] | IC50 (Histone deacetylase 1) [µM] | EC50 (HepG2) [µM] | EC50 (A549) [µM] | EC50 (HCT-116) [µM] | EC50 (PC-3) [µM] | IC50 (Histone deacetylase) [µM] | IC50 [3] [µM] | solubility [4] [µM] | logD [5] |
| --- | --- | --- | --- | --- | --- | --- | --- | --- | --- | --- | --- | --- |
| Cc1ccc(OCCN(Cc2ccccc2)Cc2ccc(/C=C/C(=O)NO)o2)cc1 | 21.8 | 10 | 68.1 | 31.4 | 13 | 52.6 | 14.8 | 51.7 | 1.87 | 3.13 | – | – |
| CCCCN(Cc1ccccc1)Cc1ccc(/C=C/C(=O)NO)o1 | 30.9 | 20 | 7.26 | 4.69 | 24.3 | 14.5 | 18.3 | 20.7 | 0.54 | 0.23 | 2300 (≈ 755 µg/mL) | 2.97 |
| O=C(/C=C/c1ccc(CN(CCCOc2ccccc2)Cc2ccccc2)o1)NO | 15.6 | 8.21 | 12.3 | 6.48 | 15 | 25.8 | 7.24 | 44.9 | 1.48 | 0.79 | – | – |
| CCN(Cc1ccccc1)Cc1ccc(/C=C/C(=O)NO)o1 | 42.3 | 21.4 | 10.7 | 5.44 | > 167 | 38.4 | 6.37 | 104 | 0.13 | 0.25 | 3000 (≈ 901 µg/mL) | 1.95 |
| Cc1ccc(OCCN(Cc2ccc(-c3ccccc3)cc2)Cc2ccc(/C=C/C(=O)NO)o2)cc1 | 7.95 | 3.59 | 9.07 | 4.09 | 19.4 | 23 | 6.93 | 18.8 | 1.71 | 1.14 | – | – |
| O=C(/C=C/c1ccc(CN(CCO)Cc2ccc(-c3ccccc3)cc2)o1)NO | – | – | – | – | 22.6 | 8.36 | 4.02 | 15.9 | 0.089 | – | 3110 (≈ 1220 µg/mL) | 1.8 |
| CCCCCCCCN(Cc1ccccc1)Cc1ccc(/C=C/C(=O)NO)o1 | – | – | – | – | 3.96 | 6.59 | 0.47 | 42.3 | 2.55 | – | 1900 (≈ 731 µg/mL) | 5.28 |
| O=C(CCCCCCC(=O)Nc1ccc([C@H]2O[C@@H](CSc3nc(-c4ccccc4)c(-c4ccccc4)o3)C[C@@H](c3ccc(CO)cc3)O2)cc1)NO | – | 7 | – | – | – | – | – | – | – | – | – | – |
| O=C(/C=C/c1ccc(CN(CCOc2ccccc2)Cc2ccccc2)o1)NO | 26.2 | 10.5 | 50.6 | 20.2 | 44.7 | 52.3 | 20.1 | > 128 | > 2.55 | 1.93 | – | – |
| Cc1ccc(OCCCN(Cc2ccccc2)Cc2ccc(/C=C/C(=O)NO)o2)cc1 | 14.2 | 10.4 | 13.2 | 9.66 | 5.95 | 7.95 | 6.02 | 42.2 | 2.54 | 0.93 | – | – |
| CCN(Cc1ccc(-c2ccccc2)cc1)Cc1ccc(/C=C/C(=O)NO)o1 | 6.87 | 4.11 | 5.72 | 3.42 | 12.8 | 8.4 | 1.84 | 67.9 | 1.25 | 0.83 | – | – |
| CC(C)N(Cc1ccccc1)Cc1ccc(/C=C/C(=O)NO)o1 | 11.6 | 6.94 | 3.96 | 2.37 | 67.5 | 34.5 | 22.7 | 26.9 | 0.18 | 0.34 | – | – |
| O=C(/C=C/c1ccc(CN(CCO)Cc2ccccc2)o1)NO | 26.3 | 29.7 | 11.3 | 12.7 | 128 | 97.2 | 12.1 | > 138 | 0.17 | 0.43 | 4000 (≈ 1270 µg/mL) | 1.62 |
| CCCN(Cc1ccccc1)Cc1ccc(/C=C/C(=O)NO)o1 | 60 | 28.1 | 10.6 | 4.95 | 16.7 | 23.2 | 24.9 | 25 | 0.17 | 0.18 | 2800 (≈ 880 µg/mL) | 2.54 |
| CC(C)CN(Cc1ccccc1)Cc1ccc(/C=C/C(=O)NO)o1 | 11.2 | 18.7 | 12.3 | 20.6 | 27.7 | 20.5 | 26.3 | 18.8 | 3.17 | 1.1 | – | – |
| Cc1ccc(OCCCCN(Cc2ccccc2)Cc2ccc(/C=C/C(=O)NO)o2)cc1 | 23.1 | 8.63 | 12.6 | 4.73 | 16.3 | 9.82 | 5.62 | 15.7 | 1.31 | 0.55 | – | – |
| CCN(CCc1ccc2c(c1)OCO2)Cc1ccc(/C=C/C(=O)NO)o1 | 41.9 | 16.6 | 20 | 7.88 | 81.7 | 84.7 | 66 | 66.5 | 2.31 | 0.48 | – | – |
| Cc1ccc(OCCN(CCc2ccc3c(c2)OCO3)Cc2ccc(/C=C/C(=O)NO)o2)cc1 | 11.3 | 3.83 | 52.5 | 17.8 | 66.7 | 27 | 28.5 | 18.7 | 0.84 | 4.65 | – | – |
| CCCCCCCCN(Cc1ccc(-c2ccccc2)cc1)Cc1ccc(/C=C/C(=O)NO)o1 | – | – | – | – | 36.9 | 28.8 | 10.4 | 36.8 | > 2.17 | – | – | – |

From ChEMBL document CHEMBL2413039, “Novel N-hydroxyfurylacrylamide-based histone deacetylase (HDAC) inhibitors with branched CAP group (Part 2)” (Bioorg Med Chem, 2013)
